Source: patent US5420335A, “Parenteral nutrients based on watersoluble glycerol bisacetoacetates” (priority 1993, dated 1995)
Values joined by “and” are separate entries in the source; they are usually repeats but may differ in a detail not shown here. Equal values may be shown once. “Also recorded” adds a separate entry of the source.

Experiments:
[1] = Oral dietary nitrogen (food) intake of intravenously infused rats; assay type: in vivo, rat (male Sprague-Dawley); conditions: for Dietary Nitrogen Intake: Table 1, Example 2
Experimental: (§1) Water was available ad libitum at all times.
(§2) The vein was then ligated dorsally to the catheter. […] Body weights were measured daily.
(§3) Infusate volume, oral food intake, body weight and urinary volume and total nitrogen were monitored daily for each rat. Infusate volume and food intake were determined by weighing the appropriate container at the start and end of each 24 hr. period. Measurements were recorded between 9 and 10 AM each day. At the end of the 7th day, rats were sacrificed, and blood and liver were harvested. Plasma was separated for measurement of free fatty acids, glucose, and ketone bodies. Liver was weighed and a sample was fixed in buffered formalin for gross histology.
(§4) The data were analyzed for significance by the one-way analysis of variance with repeated measures and comparing the effect of dietary treatment on each day. […] The null hypothesis was concluded invalid if p≤0.05. The analysis of variance was computed on a SAS statistical package.
(§5) This compound has an estimated energy density of 4.86 kcal/gram based on thermodynamic data from similar compounds.

[2] = Daily urinary nitrogen losses of intravenously infused rats; assay type: in vivo, rat (male Sprague-Dawley); conditions: Table 2, Example 2
Experimental: as §1, §2, §3
(§6) The data were analyzed for significance by the one-way analysis of variance with repeated measures and comparing the effect of dietary treatment on each day. […] The null hypothesis was concluded invalid if p≤0.05. The analysis of variance was computed on a SAS statistical package. […]

[3] = Nitrogen balance (difference between intake and urinary output); assay type: in vivo, rat (male Sprague-Dawley); conditions: for nitrogen balance: 7 days; for Nitrogen Balance, Difference Between Intake and Output: Table 3, Example 2
Experimental: as §1, §2, §3, §4
FIG. 3 illustrates the difference between oral intake and urinary nitrogen output which is termed nitrogen balance. It is representative of nitrogen balance because urinary nitrogen is the major route for body loss of nitrogen.
The experimental compound contains 8% nitrogen. With an infusion of 5.6 grams/day, infused nitrogen would provide approximately 450 mg more than that listed in the data tables. The final balance figures includes this number which is calculated based on the actual daily infusion rate for each rat.

[4] = Daily body weight of intravenously infused rats; assay type: in vivo, rat (male Sprague-Dawley); conditions: for Daily Body Weight: Table 4, Example 2
Experimental: as §1, §2, §3, §4, §5

[5] = Liver weight after 7 days of infusion; assay type: in vivo, rat (male Sprague-Dawley); conditions: for Liver/100 GM / Liver Wt.: Table 5, Example 2; for Liver/100 GM: as percentage of body weight
Experimental: as §3, §6

[6] = Plasma free fatty acids, glucose and ketone bodies after 7 days of infusion; assay type: in vivo, rat (male Sprague-Dawley); conditions: end of day 7; for ACAC / BOHB / FFa / Glucose / Ratio: A/B / T.KB: Table 5, Example 2; for T.KB: total ketone bodies
Experimental: as §3, §4

[7] = Mortality and gross toxicity on intravenous infusion; conditions: Example 2; 12.5 g/100 mL in 0.9% saline, 50 mL/day i.v.
Experimental: as §1, §2

[8] = Overall evaluation as a parenteral nutrient; assay type: in vivo, rat (male Sprague-Dawley); conditions: in words
Experimental: as §1, §2, §3, §4

[9] = Oral dietary nitrogen (food) intake of intravenously infused rats; assay type: in vivo, rat (male Sprague-Dawley); conditions: Table 1, Example 2, average of 7 rats
[10] = day 1, individual rat, listed as BISACETOACETYLGLYCEROL
[11] = day 2, individual rat, listed as BISACETOACETYLGLYCEROL
[12] = day 3, individual rat, listed as BISACETOACETYLGLYCEROL
[13] = day 4, individual rat, listed as BISACETOACETYLGLYCEROL
[14] = day 5, individual rat, listed as BISACETOACETYLGLYCEROL
[15] = day 6, individual rat, listed as BISACETOACETYLGLYCEROL
[16] = day 7, individual rat, listed as BISACETOACETYLGLYCEROL

Glycerol bis-acetoacetate [Compound 1]
Dietary Nitrogen Intake [1, 10]: 118.44 MG N and 125.02 MG N and 138.18 MG N and 611.94 MG N and 250.04 MG N and 151.34 MG N | Dietary Nitrogen Intake [1, 11]: 342.16 MG N and 434.28 MG N and 131.6 MG N and 519.82 MG N and 447.44 MG N and 322.42 MG N | Dietary Nitrogen Intake [1, 12]: 302.68 MG N and 631.68 MG N and 105.28 MG N and 447.44 MG N and 473.76 MG N and 263.2 MG N | Dietary Nitrogen Intake [1, 13]: 671.16 MG N and 638.26 MG N and 78.96 MG N and 579.04 MG N and 414.54 MG N and 407.96 MG N and 388.22 MG N | Dietary Nitrogen Intake [1, 14]: 559.3 MG N and 572.46 MG N and 230.3 MG N and 388.22 MG N and 618.52 MG N and 269.78 MG N and 296.1 MG N | Dietary Nitrogen Intake ([1]; day 6, average of 7 rats): 361 MG N | Dietary Nitrogen Intake [1, 15]: 539.56 MG N and 230.3 MG N and 59.22 MG N and 375.06 MG N and 625.1 MG N and 414.54 MG N and 282.94 MG N | Dietary Nitrogen Intake [1, 16]: 565.88 MG N and 263.2 MG N and 151.34 MG N and 421.12 MG N and 644.84 MG N and 473.76 MG N and 203.98 MG N | differences in dietary nitrogen intake among the three groups ([1]; in words, vs saline and other groups, 7 days): no differences in dietary nitrogen intake among the three groups | Urinary Nitrogen ([2]; day 1, average of 7 rats): 166 mg | Urinary Nitrogen [2, 10]: 116.21 mg and 250.2 mg and 187.3 mg and 123.37 mg and 182.18 mg and 159.89 mg and 145.06 mg | Urinary Nitrogen ([2]; day 2, average of 7 rats): 192 mg | Urinary Nitrogen [2, 11]: 315.78 mg and 264.22 mg and 139.27 mg and 174.34 mg and 187.22 mg and 165.19 mg and 94.71 mg | Urinary Nitrogen ([2]; day 3, average of 7 rats): 137 mg | Urinary Nitrogen [2, 12]: 181.94 mg and 142.42 mg and 62.97 mg and 164.52 mg and 162.29 mg and 140.13 mg and 104.72 mg | Urinary Nitrogen ([2]; day 4, average of 7 rats): 173 mg | Urinary Nitrogen [2, 13]: 294.68 mg and 253.62 mg and 47.06 mg and 193.72 mg and 139.67 mg and 115.59 mg and 168.33 mg | Urinary Nitrogen ([2]; day 5, average of 7 rats): 215 mg | Urinary Nitrogen [2, 14]: 289.81 mg and 303.16 mg and 254.66 mg and 144.16 mg and 274.72 mg and 97.81 mg and 142.32 mg | Urinary Nitrogen ([2]; day 6, average of 7 rats): 195 mg | Urinary Nitrogen [2, 15]: 283.02 mg and 191.83 mg and 11.17 mg and 134.85 mg and 378.79 mg and 184.37 mg and 179.01 mg | Urinary Nitrogen ([2]; day 7, average of 7 rats): 219 mg | Urinary Nitrogen [2, 16]: 381.14 mg and 194.98 mg and 152.92 mg and 192.67 mg and 269.64 mg and 203.37 mg and 138.8 mg | nitrogen balance ([3]; Example 2): around +200 mg/day | Nitrogen Balance, Difference Between Intake and Output ([3]; day 1, average of 7 rats): 50 MG N | Nitrogen Balance, Difference Between Intake and Output [3, 10]: 2.23 MG N and -125.18 MG N and -49.12 MG N and 488.57 MG N and 67.86 MG N and -8.55 MG N and -26.62 MG N | Nitrogen Balance, Difference Between Intake and Output ([3]; day 2, average of 7 rats): 141 MG N | Nitrogen Balance, Difference Between Intake and Output [3, 11]: 26.38 MG N and 170.06 MG N and 345.48 MG N and 260.22 MG N and 157.23 MG N and 36.89 MG N | Nitrogen Balance, Difference Between Intake and Output ([3]; day 3, average of 7 rats): 271 MG N | Nitrogen Balance, Difference Between Intake and Output [3, 12]: 120.74 MG N and 489.26 MG N and 42.31 MG N and 282.92 MG N and 469.39 MG N and 333.63 MG N and 158.48 MG N | Nitrogen Balance, Difference Between Intake and Output ([3]; day 4, average of 7 rats): 281 MG N | Nitrogen Balance, Difference Between Intake and Output [3, 13]: 376.48 MG N and 384.64 MG N and 31.9 MG N and 385.32 MG N and 274.87 MG N and 292.37 MG N and 219.89 MG N | Nitrogen Balance, Difference Between Intake and Output ([3]; day 5, average of 7 rats): 204 MG N | Nitrogen Balance, Difference Between Intake and Output [3, 14]: 269.49 MG N and 269.3 MG N and -24.36 MG N and 244.06 MG N and 343.8 MG N and 171.97 MG N and 153.78 MG N | Nitrogen Balance, Difference Between Intake and Output ([3]; day 6, average of 7 rats): 166 MG N | Nitrogen Balance, Difference Between Intake and Output [3, 15]: 256.54 MG N and 38.47 MG N and 48.05 MG N and 240.21 MG N and 246.31 MG N and 230.17 MG N and 103.93 MG N | Nitrogen Balance, Difference Between Intake and Output ([3]; day 7, average of 7 rats): 170 MG N | Nitrogen Balance, Difference Between Intake and Output [3, 16]: 184.74 MG N and 68.22 MG N and -1.58 MG N and 228.45 MG N and 375.2 MG N and 270.39 MG N and 65.18 MG N | nitrogen balance ([3]; in words): positive nitrogen balances; also recorded: better growth and nitrogen retention | Daily Body Weight ([4]; day 0, average of 7 rats): 262 Grams | Daily Body Weight ([4]; day 0, individual rat, listed as BISACETOACETYLGLYCEROL): 282 Grams and 278 Grams and 233 Grams and 283 Grams and 268 Grams and 244 Grams | Daily Body Weight ([4]; day 1, average of 7 rats): 268 Grams | Daily Body Weight [4, 10]: 311 Grams and 290 Grams and 230 Grams and 284 Grams and 268 Grams and 249 Grams and 241 Grams | Daily Body Weight ([4]; day 2, average of 7 rats): 268 Grams | Daily Body Weight [4, 11]: 273 Grams and 289 Grams and 232 Grams and 297 Grams and 279 Grams and 249 Grams and 256 Grams | Daily Body Weight ([4]; day 3, average of 7 rats): 273 Grams | Daily Body Weight [4, 12]: 278 Grams and 286 Grams and 258 Grams and 292 Grams and 256 Grams and 263 Grams | Daily Body Weight ([4]; day 4, average of 7 rats): 271 Grams | Daily Body Weight [4, 13]: 265 Grams and 284 Grams and 226 Grams and 302 Grams and 280 Grams and 262 Grams and 276 Grams | Daily Body Weight ([4]; day 5, average of 7 rats): 276 Grams | Daily Body Weight [4, 14]: 261 Grams and 276 Grams and 234 Grams and 306 Grams and 285 Grams and 293 Grams and 277 Grams | Daily Body Weight ([4]; day 6, average of 7 rats): 269 Grams | Daily Body Weight [4, 15]: 253 Grams and 261 Grams and 252 Grams and 310 Grams and 281 Grams and 269 Grams and 260 Grams | Daily Body Weight ([4]; day 7, average of 7 rats): 266 Grams | Daily Body Weight [4, 16]: 249 Grams and 261 Grams and 253 Grams and 307 Grams and 276 Grams and 273 Grams and 245 Grams | change in body weight ([4]; in words, 7 days): gained weight; also recorded: body weight changes which were consistent with nitrogen balance data; also recorded: better growth | Liver/100 GM ([5]; average of 7 rats): 3.223 | Liver/100 GM ([5]; individual rat): 2.859 and 3.494 and 3.130 and 3.795 and 2.482 and 3.183 and 3.620 | Liver Wt. ([5]; end of day 7, average of 7 rats): 8.603 Grams | Liver Wt. ([5]; end of day 7, individual rat): 7.12 Grams and 9.12 Grams and 7.92 Grams and 11.65 Grams and 6.85 Grams and 8.69 Grams and 8.87 Grams | liver weight and percentage liver weight ([5]; in words, end of day 7): similarity between glucose infused and experimental compound infused rats liver | ACAC ([6]; plasma, average of 7 rats): 0.716 mmol/L | BOHB ([6]; plasma, average of 7 rats): 0.776 mmol/L | FFa ([6]; plasma, average of 7 rats): 0.563 mmol/L | Glucose ([6]; plasma, average of 7 rats): 117.789 mg/dL | Ratio: A/B ([6]; plasma, average of 7 rats): 1.171 | ACAC ([6]; plasma, individual rat): 0.982 mmol/L and 0.851 mmol/L and 0.939 mmol/L and 0.447 mmol/L and 0.869 mmol/L and 0.550 mmol/L and 0.377 mmol/L | BOHB ([6]; plasma, individual rat): 0.797 mmol/L and 0.770 mmol/L and 1.059 mmol/L and 0.529 mmol/L and 1.021 mmol/L and 0.404 mmol/L and 0.849 mmol/L | FFa ([6]; plasma, individual rat): 0.540 mmol/L and 0.574 mmol/L and 0.745 mmol/L and 0.466 mmol/L and 0.483 mmol/L and 0.615 mmol/L and 0.519 mmol/L | Glucose ([6]; plasma, individual rat): 94.920 mg/dL and 149.000 mg/dL and 114.200 mg/dL and 163.500 mg/dL and 89.000 mg/dL and 122.100 mg/dL and 91.800 mg/dL | Ratio: A/B ([6]; plasma, individual rat): 0.812 and 0.905 and 1.128 and 1.185 and 1.175 and 0.735 and 2.254 | T.KB ([6]; plasma, average of 7 rats): 1.492 mmol/L | T.KB ([6]; plasma, individual rat): 1.779 mmol/L and 1.621 mmol/L and 1.998 mmol/L and 0.976 mmol/L and 1.890 mmol/L and 0.954 mmol/L and 1.226 mmol/L | blood / plasma glucose ([6]; in words): normal blood glucose; also recorded: did not have the hyperglycemia associated with glucose infusion | free fatty acid concentration ([6]; in words, plasma): not different for the three groups | ketone bodies ([6]; in words, plasma): elevated; also recorded: approximately the maximum associated with total fasting in the rat | rats died from causes unknown [7]: Five | efficacy as parenteral nutrient / energy source [8]: providing significant energy beyond that which was available from oral dietary intake | efficacy as parenteral nutrient / energy source ([8]; listed as 1,2- and 1,3-bisacetoacetyl glycerol): unexpectedly high nutrient activity | Dietary Nitrogen Intake ([9]; day 1): 216 MG N | Dietary Nitrogen Intake ([9]; day 2): 333 MG N | Dietary Nitrogen Intake ([9]; day 3): 408 MG N | Dietary Nitrogen Intake ([9]; day 4): 454 MG N | Dietary Nitrogen Intake ([9]; day 5): 419 MG N | Dietary Nitrogen Intake ([9]; day 7): 389 MG N
